# What was measured:
# [1] = test system: renal proximal tubular cells; test: Monolayer DNA content as marker of renal proximal tubular cell proliferation after DCVC injury; type: cell-based, rabbit
# Experimental: (§1) Rabbit renal proximal tubules were isolated by iron oxide perfusion method and grown in 35 mm culture dishes in improved conditions as described previously (Nowak and Schnellmann, 1996). The purity of the renal proximal tubular S1 and S2 segments isolated by this method is approximately 96%. The culture medium was a 50:50 mixture of Dulbecco's modified Eagle's essential medium (DMEM) and Ham's F-12 nutrient mix without phenol red, pyruvate, and glucose, supplemented with 15 mM NaHCO3, 15 mM N-2hydroxyethylpiperazine-N′-2-ethanesulfonic acid, and 6 mM lactate (pH7.4, 295 mosmol/kg). Human transferrin (5 μg/ml), selenium (5 ng/ml), hydrocortisone (50 nM), bovine insulin (10 nM), and L-ascorbic acid-2-phosphate (0.05 mM or 0.5 mM) were added to the medium immediately before daily media change (2 ml/ dish).
# (§2) Renal proximal tubular cells monolayers reached confluence within 5 days and were treated with dichlorovinyl-L-cysteine (0.2 mM, 100 min) on day 6 of culture. Following dichlorovinyl-L-cysteine exposure, the remaining monolayer was washed with fresh medium and cultured for 4 days. Samples of renal proximal tubular cells were taken at various time points after dichlorovinyl-L-cysteine exposure for measurements of cellular functions. Prior to measurement of any functions, renal proximal tubular cells were washed with ice cold phosphate buffered saline (pH 7.4) or 37° C. culture media (for measurement of oxygen consumption, QO2) to remove non-viable cells.
# Monolayer DNA content was used as a marker of renal proximal tubular cells proliferation. Monolayers were solubilized in 0.05 M Tris-HCl (pH 7.4) containing 0.15 M NaCl and 0.05% Triton X-100 and DNA determined in cell lysates by the method of Labarca and Paigen (1980) as described previously (Nowak and Schnellmann, 1996). Protein was measured by the method of Lowry et al. (1951).
# [2] = test system: renal proximal tubular cells; test: Basal oxygen consumption (QO2) as marker of mitochondrial function; type: cell-based, rabbit
# Experimental: as §1, §2
# (§3) Washed renal proximal tubular cells monolayers were gently detached from the dishes with a rubber policeman, suspended in 37° C. culture medium and transferred to the oxygen consumption (QO2) measurement chamber. QO2 was measured polarographically using Clark type electrode as described previously (Nowak and Schnellmann, 1996; Nowak et al., 1998; Nowak et al., 1999). Ouabain-insensitive QO2 was measured in the presence of 0.1 mM ouabain and was calculated as a difference between basal and ouabain-insensitive QO2.
# [3] = test system: renal proximal tubular cells; test: Ouabain-insensitive oxygen consumption (QO2); type: cell-based, rabbit; conditions: for decrease of ouabain-insensitive QO2: 24 hr after DCVC
# Experimental: as §1, §2, §3
# [4] = test system: renal proximal tubular cells; test: Ouabain-sensitive QO2 as marker of active Na+ transport; type: cell-based, rabbit
# Experimental: as §1, with “dish). […]” for “dish).”
# as §3
# [5] = test system: α1 subunit of Na^+-K^+-ATPase; test: Immunocytochemical localization of Na+-K+-ATPase (confocal laser scanning microscopy); type: cell-based, rabbit; conditions: for effect on Na+-K+-ATPase protein of the plasma membrane: DCVC 0.2 mM, independent of AscP concentration
# Experimental: as §1, §2
# At various time points following dichlorovinyl-L-cysteine exposure, control and DCVC-treated renal proximal tubular cells monolayers were washed 3 times with ice-cold PBS and fixed in 3.7% formaldehyde. Following permeabilization with 100% methanol for 10 min at −20° C., renal proximal tubular cells monolayers were washed with PBS containing 0.1% BSA and 0.3% Triton X-100 (PBS/0.1% BSA/0.3% Triton X-100) for 15 min at room temperature. Blocking of non-specific binding was performed for 30 min in PBS containing 8% BSA. […]
# [6] = test system: renal proximal tubular cells; conditions: Nowak et al., 1999, cited from earlier work
# [7] = DCVC-injured RPTC, 0.5 mM AscP, day 4
compound,measurement,setting,value
"O=C1O[C@H]([C@@H](O)CO)C(O)=C1OP(=O)([O-])[O-].[Mg+2] [L-ascorbic acid phosphate, L-Ascorbic acid-2-phosphate magnesium salt]",proliferation and recovery of physiological functions and basolateral Na+-K+-ATPase expression,"[1]; DCVC-injured RPTC, 0.5 mM AscP, by day 4 (summary)","proliferated, recovered all examined physiological functions and the basolateral membrane expression of Na^+-K^+-ATPase by day 4"
same,increase of monolayer DNA content,"[1]; DCVC-injured RPTC, 0.5 mM AscP, day 2",1.6 fold
same,increase of monolayer DNA content,[1]; [7],2.3 fold
same,monolayer DNA content relative to controls,[1]; [7],81 % of controls
same,"monolayer DNA content in control RPTC, 0.05 vs 0.5 mM",[1]; control RPTC without DCVC,equivalent
same,"basal QO2 in control RPTC, 0.05 vs 0.5 mM",[2]; control RPTC without DCVC,equivalent
same,remaining decrease of ouabain-insensitive QO2,"[3]; DCVC-injured RPTC, through day 4, 0.05 mM AscP",45%
same,ouabain-insensitive QO2,"[3]; control RPTC without DCVC, 0.05 mM AscP",9.7±1.6 nmol O2/min/mg protein
same,ouabain-insensitive QO2,"[3]; control RPTC without DCVC, 0.5 mM AscP",12.9±1.5 nmol O2/min/mg protein
same,time of return of active Na+ transport to control levels,"[4]; DCVC-injured RPTC, pharmacological concentrations of AscP (discussion)",occurred on day 4
same,"ouabain-sensitive QO2 in control RPTC, 0.05 vs 0.5 mM",[4]; control RPTC without DCVC,equivalent
same,"basolateral Na+-K+-ATPase protein levels and distribution in control RPTC, physiological vs pharmacological concentration",[5]; control RPTC without DCVC,no difference
"N[C@@H](CSC(Cl)=CCl)C(=O)O [dichlorovinyl-L-cysteine, S-(1,2dichlorovinyl)-L-cysteine]",renal proximal tubular cells death and loss from the monolayer,"[1]; 24 hr after DCVC 0.2 mM, 100 min, independent of AscP 0.05 or 0.5 mM",60%
same,loss of monolayer DNA,"[1]; 24 hr after DCVC 0.2 mM, 100 min, regardless of AscP 0.05 or 0.5 mM",61%
same,decrease of basal QO2,"[2]; 24 hr after DCVC, RPTC grown in 0.05 mM AscP",59%
same,decrease in mitochondrial function,"[2]; DCVC 0.2 mM, 100 min, independent of AscP concentration",54%
same,decrease of basal QO2,"[2]; after DCVC, RPTC grown in 0.5 mM AscP",62%
same,decrease of ouabain-insensitive QO2,[3]; 0.05 mM AscP,32%
same,decrease of ouabain-insensitive QO2,[3]; 0.5 mM AscP,50%
same,ouabain-insensitive QO2,"[3]; DCVC-treated RPTC, 24 hr, 0.05 mM AscP",6.6±2.6 nmol O2/min/mg protein
same,ouabain-insensitive QO2,"[3]; DCVC-treated RPTC, 24 hr, 0.5 mM AscP",6.5±1.0 nmol O2/min/mg protein
same,effect on Na+-K+-ATPase protein of the plasma membrane,[5],loss of Na^+-K^+-ATPase protein from the basolateral membrane
same,effect on Na+-K+-ATPase protein of the plasma membrane,[5]; listed as DCVC,loss of the Na^+-K^+-ATPase protein from the basolateral domain
same,cell death and loss from the monolayer,[6]; earlier study,30%
"EGF: epidermal growth factor, 10 ng/ml daily treatments",effect on inhibition of RPTC regeneration after DCVC-induced injury,"[6]; daily treatments, 10 ng/ml",can be overcome

# From US20020019372A1 (priority 2000, published 2002)
